# Experimental data reported in patent publication US20170066759A1, “AROMATIC 5-MEMBERED HETEROCYCLIC DERIVATIVE HAVING TRPV4-INHIBITING ACTIVITY” (Shionogi & Co., Ltd., priority 2012, published 2017).
# Target: T1, human TRPV4 (hTRPV4/CHO cells) (Homo sapiens, UniProt Q9HBA0)
# T1 construct: expressed in transfected cells; host or cells: CHO-K1
# Assay: Test Example 1: TRPV4 inhibitory activity (IC50 value), 4α-PDD stimulation, Fluo4 calcium fluorescence (FLIPR TETRA)
# Type: cell-based
# Settings: Test Example 1, 4α-PDD stimulation, read-out: Test 1 IC50
# T1 sequence (Q9HBA0 whole entry): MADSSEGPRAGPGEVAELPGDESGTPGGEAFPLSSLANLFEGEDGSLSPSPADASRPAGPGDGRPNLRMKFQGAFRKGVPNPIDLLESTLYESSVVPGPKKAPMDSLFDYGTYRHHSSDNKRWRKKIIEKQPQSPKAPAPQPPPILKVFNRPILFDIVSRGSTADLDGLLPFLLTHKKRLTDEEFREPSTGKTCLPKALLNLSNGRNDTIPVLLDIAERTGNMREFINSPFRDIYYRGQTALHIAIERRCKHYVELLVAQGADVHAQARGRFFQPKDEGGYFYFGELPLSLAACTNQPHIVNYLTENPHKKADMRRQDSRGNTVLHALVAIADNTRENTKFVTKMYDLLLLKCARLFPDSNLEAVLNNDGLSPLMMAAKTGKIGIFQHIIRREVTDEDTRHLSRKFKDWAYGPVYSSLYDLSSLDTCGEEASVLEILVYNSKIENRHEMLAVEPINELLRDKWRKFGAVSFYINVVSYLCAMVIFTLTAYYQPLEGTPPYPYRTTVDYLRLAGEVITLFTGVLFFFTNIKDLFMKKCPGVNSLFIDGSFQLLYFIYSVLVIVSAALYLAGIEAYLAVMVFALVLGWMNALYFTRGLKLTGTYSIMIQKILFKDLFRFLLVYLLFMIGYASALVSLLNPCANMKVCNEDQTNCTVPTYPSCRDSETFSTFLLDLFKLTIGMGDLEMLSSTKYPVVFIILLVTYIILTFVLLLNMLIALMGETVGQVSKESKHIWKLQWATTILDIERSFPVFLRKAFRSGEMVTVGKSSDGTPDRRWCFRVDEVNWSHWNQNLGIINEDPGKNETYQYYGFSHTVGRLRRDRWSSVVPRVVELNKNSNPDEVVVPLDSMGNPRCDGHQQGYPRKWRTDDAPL
row,IC50 [nM],Compound
1,< 100,Cc1nc(C)c(-c2csc(NC(=O)Cc3cccc(C(=O)N[C@@H](c4ccccc4)C(F)(F)F)c3)n2)s1 [Compound I-490]
2,1000 to 8000,Cc1nc(C(=O)NS(C)(=O)=O)sc1-c1csc(NC(=O)Cc2c(F)cccc2F)n1 [Compound I-115]
3,1000 to 8000,O=C(Nc1nc(-c2sc(CO)nc2CO)cs1)[C@H]1C[C@@H](OCc2ccccc2)C1 [Compound I-549]
4,< 100,O=C(Nc1nc(-c2sc(CO)nc2CO)cs1)C1CN(c2ccc(C(F)(F)F)cc2)C1 [Compound I-302]
5,< 100,Cc1nc(CO)c(-c2csc(NC(=O)Cc3ccc(S(=O)(=O)C(F)(F)F)cc3)n2)s1 [Compound I-456]
6,100 to 1000,CO[C@H]1C[C@H](C(=O)Nc2nc(-c3sc(C)nc3C)cs2)C1 [Compound I-268]
7,< 100,N#CCc1nc(CO)sc1-c1csc(NC(=O)C2CN(c3ccc(C(F)(F)F)cc3)C2)n1 [Compound I-334]
8,100 to 1000,Cc1nc(C)c(-c2csc(NC(=O)Cc3ccccc3C#N)n2)s1 [Compound I-121]
9,< 100,Cc1nc(C)c(-c2csc(NC(=O)Cc3cc(C#N)cc(C(=O)N[C@H](c4ccccc4)C(F)(F)F)c3)n2)s1 [Compound I-516]
10,< 100,Cc1nc(C)c(-c2csc(NC(=O)C3CN(c4ccc(C(F)(F)F)cc4)C3)n2)s1 [Compound I-497]
11,1000 to 8000,NC(=O)c1nc(CO)c(-c2csc(NC(=O)Cc3ccc(S(=O)(=O)C(F)(F)F)cc3)n2)s1 [Compound I-255]
12,100 to 1000,Cc1nc(CO)sc1-c1csc(NC(=O)C2CCN(S(=O)(=O)C(F)(F)F)C2)n1 (stereo not drawn) [Compound I-214]
13,100 to 1000,COC(=O)c1ccc(C(=O)N2CC(C(=O)Nc3nc(-c4sc(C)nc4C)cs3)C2)cc1 [Compound I-261]
14,1000 to 8000,Cc1nc(C)c(-c2csc(NCC(F)(F)c3ccccc3)n2)s1 [II-33]
15,< 100,COc1cc(CC(=O)Nc2nc(-c3sc(C)nc3C)cs2)cc(C(=O)Nc2ccc(C(F)(F)F)cc2)c1 [Compound I-525]
16,1000 to 8000,Cc1nc(CO)sc1-c1csc(NC(=O)C2C[C@H](C(F)(F)F)CN2C(=O)C(F)(F)F)n1 (stereo partly drawn) [Compound I-464]
17,< 100,Cc1nc(CO)sc1-c1csc(NC(=O)Cc2c(F)cccc2F)n1 [Compound I-76]
18,< 100,Cc1nc(C)c(-c2csc(NC(=O)Cc3cccc(NC(=O)C4CCCCC4)c3)n2)s1 [Compound I-416]
19,100 to 1000,Cc1nc(C)c(-c2csc(NC(=O)Cc3cccc(S(C)(=O)=O)c3)n2)s1 [Compound I-79]
20,100 to 1000,Cc1nc(C)c(-c2csc(NC(=O)C(C)c3c(F)cccc3F)n2)s1 (stereo not drawn) [Compound I-102]
21,1000 to 8000,Cc1nc(CO)sc1-c1csc(NC(=O)C2CC(N3CCC(F)(F)C3)C2)n1 (stereo not drawn) [Compound I-361]
22,< 100,CN(C)C(=O)NCc1nc(CO)sc1-c1csc(NC(=O)Cc2ccc(S(=O)(=O)C(F)(F)F)cc2)n1 [Compound I-390]
23,< 100,Cc1nc(CO)sc1-c1csc(NC(=O)[C@H]2C[C@@H](c3ccc(C(F)(F)F)cc3)C2)n1 [Compound I-405]
24,100 to 1000,Cc1nc(C)c(-c2csc(NC(=O)Cc3ccc(S(=O)(=O)N4CCOCC4)cc3)n2)s1 [Compound I-157]
25,< 100,Cc1nc(C)c(-c2csc(NC(=O)[C@H]3C[C@@H](OCc4ccc(C(F)(F)F)cc4)C3)n2)s1 [Compound I-354]

row,IC50 [nM],Compound
1,100 to 1000,CC(=O)NCc1nc(C)c(-c2csc(NC(=O)Cc3ccc(S(=O)(=O)C(F)(F)F)cc3)n2)s1 [Compound I-397]
2,< 100,Cc1nc(C)c(-c2csc(NC(=O)Cn3cc(C4CCCCC4)nn3)n2)s1 [Compound I-190]
3,< 100,Cc1nc(CO)sc1-c1csc(NC(=O)[C@@H]2C[C@@H](c3ccccc3)CN2C(=O)OCC(F)(F)F)n1 [Compound I-314]
4,< 100,Cc1nc(C)c(-c2csc(NC(=O)[C@@H]3C[C@@H](c4ccccc4)CN3S(=O)(=O)C(C)C)n2)s1 [Compound I-301]
5,100 to 1000,Cc1nc(CO)sc1-c1csc(NC(=O)C2CN(S(=O)(=O)CCC(F)(F)F)C2)n1 [Compound I-433]
6,100 to 1000,Cc1nc(C)c(-c2csc(NC(=O)Cc3ccc(S(=O)(=O)Nc4ccccc4)cc3)n2)s1 [Compound I-164]
7,< 100,Cc1nc([C@@H](C)O)sc1-c1csc(NC(=O)Cc2ccc(S(=O)(=O)C(F)(F)F)cc2)n1 [Compound I-455]
8,100 to 1000,Cc1nc(C)c(-c2csc(NC(=O)[C@H](Cc3ccccc3)NC(=O)OC(C)(C)C)n2)s1 [Compound I-265]
9,100 to 1000,Cc1nc(C)c(-c2csc(NC(=O)[C@@H]3C[C@@H](c4ccccc4)CN3C(=O)C(C)C)n2)s1 [Compound I-291]
10,< 100,Cc1nc(CO)sc1-c1csc(NC(=O)[C@@H]2C[C@@H](c3ccccc3)CN2C(=O)OC(C)(C)C)n1 [Compound I-277]
11,< 100,NC(=O)OCCc1nc(CO)sc1-c1csc(NC(=O)Cc2ccc(S(=O)(=O)C(F)(F)F)cc2)n1 [Compound I-370]
12,1000 to 8000,Cc1nc(C)c(-c2csc(NC(=O)Cn3cc(C4(O)CCCCC4)nn3)n2)s1 [Compound I-189]
13,< 100,COC(=O)c1cccc(CC(=O)Nc2nc(-c3sc(C)nc3C)cs2)c1 [Compound I-488]
14,100 to 1000,NC(=O)CCc1nc(CO)sc1-c1csc(NC(=O)Cc2ccc(S(=O)(=O)C(F)(F)F)cc2)n1 [Compound I-407]
15,100 to 1000,CC(OC(N)=O)c1nc(CO)sc1-c1csc(NC(=O)Cc2ccc(S(=O)(=O)C(F)(F)F)cc2)n1 (racemic) [Compound I-474]
16,100 to 1000,Cc1nc(CO)sc1-c1csc(NC(=O)C2CCN(CC(F)(F)F)C2)n1 (stereo not drawn) [Compound I-213]
17,< 100,Cc1nc(CO)sc1-c1csc(NC(=O)C2CN(S(=O)(=O)c3ccc(C(F)(F)F)cc3)C2)n1 [Compound I-306]
18,< 100,COc1cc(CC(=O)Nc2nc(-c3sc(C)nc3C)cs2)cc(C(=O)Nc2ccc(Cl)cc2F)c1 [Compound I-526]
19,100 to 1000,Cc1nc(CO)sc1-c1csc(NC(=O)CC2Cc3ccccc3C2)n1 (racemic) [Compound I-239]
20,100 to 1000,Cc1nc(CO)sc1-c1csc(NC(=O)CN2CCC(c3ccccc3)CC2)n1 [Compound I-171]
21,1000 to 8000,CCOc1cn(CC(=O)Nc2nc(-c3sc(C)nc3C)cs2)nn1 [Compound I-431]
22,< 100,Cc1nc(CO)sc1-c1csc(NC(=O)[C@H]2C[C@@H](OCc3ccc(C(F)(F)F)cc3)C2)n1 [Compound I-335]
23,< 100,Cc1nc([C@H](C)O)sc1-c1csc(NC(=O)Cc2cc(Br)cc(C(=O)Nc3ccc(C(F)(F)F)cc3)c2)n1 [Compound I-523]
24,100 to 1000,Cc1nc(C)c(-c2csc(NC(=O)Cc3ccc(S(C)(=O)=O)cc3F)n2)s1 [Compound I-92]
25,< 100,Cc1nc(C)c(-c2csc(NC(=O)C3(C)CN(c4ccc(C(F)(F)F)cc4)C3)n2)s1 [Compound I-496]

row,IC50 [nM],Compound
1,< 100,Cc1nc(CO)sc1-c1csc(NC(=O)Nc2ccc(C(F)(F)F)nc2)n1 [Compound I-447]
2,< 100,Cc1nc(C)c(-c2csc(NC(=O)Cc3cc(Br)cc(C(=O)N[C@H](c4ccccc4)C(F)(F)F)c3)n2)s1 [Compound I-510]
3,100 to 1000,Cc1nc(C)c(-c2csc(NC(=O)C3CN(c4ccc(C(F)(F)F)nn4)C3)n2)s1 [Compound I-284]
4,1000 to 8000,Cc1nc(C)c(-c2csc(NC(=O)Cc3cc(O)cc(C(=O)N[C@H](c4ccccc4)C(F)(F)F)c3)n2)s1 [Compound I-511]
5,1000 to 8000,CCNC(=O)N1C[C@H](c2ccccc2)C[C@H]1C(=O)Nc1nc(-c2sc(C)nc2C)cs1 [Compound I-300]
6,< 100,Cc1nc(C)c(-c2csc(NC(=O)C3CCN(c4ncc(C(F)(F)F)cn4)CC3)n2)s1 [Compound I-379]
7,100 to 1000,Cc1nc(C)c(-c2csc(NC(=O)CN3CCN(c4ccccc4)CC3)n2)s1 [Compound I-144]
8,100 to 1000,Cc1nc(CN2NCCC2=O)c(-c2csc(NC(=O)Cc3ccc(S(=O)(=O)C(F)(F)F)cc3)n2)s1 [Compound I-487]
9,< 100,Cc1nc(CO)sc1-c1csc(NC(=O)CCc2ccc(Cl)cc2)n1 [Compound I-458]
10,< 100,CCOCC(=O)NCc1nc(CO)sc1-c1csc(NC(=O)Cc2ccc(S(=O)(=O)C(F)(F)F)cc2)n1 [Compound I-438]
11,< 100,Cc1nc(C)c(-c2csc(NC(=O)C3Cc4ccccc4N3C(=O)C(F)(F)F)n2)s1 (stereo not drawn) [Compound I-176]
12,< 100,Cc1nc(C)c(-c2csc(NC(=O)[C@@H]3C[C@@H](N4CCC(c5ccccc5)CC4)CN3C(=O)OC(C)(C)C)n2)s1 [Compound I-272]
13,100 to 1000,Cc1nc(C)c(-c2csc(NC(=O)Cn3cc(CNc4ccccc4)nn3)n2)s1 [Compound I-425]
14,< 100,Cc1nc(CCl)c(-c2csc(NC(=O)Cc3ccc(S(=O)(=O)C(F)(F)F)cc3)n2)s1 [Compound I-484]
15,< 100,Cc1nc(C)c(-c2csc(NC(=O)CN3CCC[C@H](c4ccccc4)C3)n2)s1 [Compound I-184]
16,< 100,Cc1nc(C)c(-c2csc(NC(=O)Cc3cccc(C(=O)N[C@H](c4ccccc4)C(F)(F)F)c3)n2)s1 [Compound I-489]
17,1000 to 8000,CN(C)Cc1nc(CO)sc1-c1csc(NC(=O)Cc2ccc(S(=O)(=O)C(F)(F)F)cc2)n1 [Compound I-412]
18,1000 to 8000,CNC(=O)c1nc(C)c(-c2csc(NC(=O)Cc3c(F)cccc3F)n2)s1 [Compound I-113]
19,< 100,O=C(Cc1ccc(S(=O)(=O)C(F)(F)F)cc1)Nc1nc(-c2sc(CO)nc2CCO)cs1 [Compound I-366]
20,< 100,Cc1nc(C)c(-c2csc(NC3CCCC3)n2)s1 [II-38]
21,< 100,Cc1nc(C)c(-c2csc(NCCc3ccccc3)n2)s1 [II-35]
22,< 100,CCOC(=O)N1C[C@H](c2ccccc2)C[C@H]1C(=O)Nc1nc(-c2sc(CO)nc2C)cs1 [Compound I-313]
23,100 to 1000,CCN(CC)Cc1nc(CO)sc1-c1csc(NC(=O)Cc2ccc(S(=O)(=O)C(F)(F)F)cc2)n1 [Compound I-236]
24,< 100,NC(=O)OCc1nc(CO)sc1-c1csc(NC(=O)Cc2ccc(S(=O)(=O)C(F)(F)F)cc2)n1 [Compound I-373]
25,1000 to 8000,CON(C)C(=O)c1nc(C)c(-c2csc(NC(=O)Cc3c(F)cccc3F)n2)s1 [Compound I-105]
